Reference: the supplement of paper PMC10307832

Columns and labels:
Experiment in all cases: relative viability (nuclei count vs DMSO), 5 days (fraction); higher = more cells survive
Tipifarnib = compound: Cn1cncc1[C@@](N)(c1ccc(Cl)cc1)c1ccc2c(c1)c(-c1cccc(Cl)c1)cc(=O)n2C [Tipifarnib]
How it was run: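 MetaXpress counted nuclei in 4× images of lung cancer cell lines that had been fixed, permeabilised and Hoechst-stained in one step. Before that, cells in 1536-well plates were kept overnight at 37 °C, pinned with five √10-spaced library-drug doses on vehicle-anchored plates, and cultured 5 days without medium change. Viability takes treated-well nuclei over vehicle-well nuclei and uses the median across plates. Plates were accepted only at control CV below 25% and at least one doubling.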

Tipifarnib + Tozasertib = compound: Cn1cncc1[C@@](N)(c1ccc(Cl)cc1)c1ccc2c(c1)c(-c1cccc(Cl)c1)cc(=O)n2C [Tipifarnib] + Cc1cc(Nc2cc(N3CCN(C)CC3)nc(Sc3ccc(NC(=O)C4CC4)cc3)n2)n[nH]1 [Tozasertib] (partner 0.1 µM)
How it was run: (§1)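 After 5 days of treatment, lung cancer cells in 1536-well plates were fixed and stained in a single step (final 0.05% Triton X-100, 1% formaldehyde, 1 ug/ml Hoechst) and their nuclei counted on 4× images. Treatment had been applied by pin tool the day after seeding as one drug alone or as a fixed anchor-drug dose with five library-drug doses (not always all listed) in √10 steps. Relative viability is the nuclei count of treated wells divided by that of vehicle wells, and values are medians of duplicate plates.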

Tipifarnib + Navitoclax = compound: Cn1cncc1[C@@](N)(c1ccc(Cl)cc1)c1ccc2c(c1)c(-c1cccc(Cl)c1)cc(=O)n2C [Tipifarnib] + CC1(C)CCC(c2ccc(Cl)cc2)=C(CN2CCN(c3ccc(C(=O)NS(=O)(=O)c4ccc(N[C@H](CCN5CCOCC5)CSc5ccccc5)c(S(=O)(=O)C(F)(F)F)c4)cc3)CC2)C1 [Navitoclax] (partner 0.5 µM)
How it was run: as §1

Tipifarnib + Phenformin = compound: Cn1cncc1[C@@](N)(c1ccc(Cl)cc1)c1ccc2c(c1)c(-c1cccc(Cl)c1)cc(=O)n2C [Tipifarnib] + N=C(N)NC(=N)NCCc1ccccc1 [Phenformin] (partner 250 µM)
How it was run: as §1

Cell Line	relative viability (Tipifarnib; 0.01 µM)	relative viability (Tipifarnib; 0.03162 µM)	relative viability (Tipifarnib; 0.1 µM)	relative viability (Tipifarnib; 0.3162 µM)	relative viability (Tipifarnib; 1 µM)	relative viability (Tipifarnib + Tozasertib; first compound 0.01 µM)	relative viability (Tipifarnib + Tozasertib; first compound 0.03162 µM)	relative viability (Tipifarnib + Tozasertib; first compound 0.1 µM)	relative viability (Tipifarnib + Tozasertib; first compound 0.3162 µM)	relative viability (Tipifarnib + Tozasertib; first compound 1 µM)	relative viability (Tipifarnib + Navitoclax; first compound 0.01 µM)	relative viability (Tipifarnib + Navitoclax; first compound 0.03162 µM)	relative viability (Tipifarnib + Navitoclax; first compound 0.1 µM)	relative viability (Tipifarnib + Navitoclax; first compound 0.3162 µM)	relative viability (Tipifarnib + Navitoclax; first compound 1 µM)	relative viability (Tipifarnib + Phenformin; first compound 0.01 µM)	relative viability (Tipifarnib + Phenformin; first compound 0.03162 µM)	relative viability (Tipifarnib + Phenformin; first compound 0.1 µM)	relative viability (Tipifarnib + Phenformin; first compound 0.3162 µM)	relative viability (Tipifarnib + Phenformin; first compound 1 µM)
201T	0.999	1.02	0.932	0.893	0.669	1.02	0.945	0.864	0.705	0.767	1.21	1.23	1.2	1.15	1.18	0.493	0.441	0.457	0.402	0.362
A549	1.01	0.853	0.563	0.417	0.251	–	–	–	–	–	1.18	0.981	0.678	0.531	0.341	0.181	0.116	0.108	0.0861	0.0622
A-427	1.12	0.981	0.987	0.826	0.609	0.164	0.205	0.227	0.171	0.211	1	0.951	0.955	0.874	0.812	0.31	0.272	0.319	0.227	0.226
ABC-1	0.959	–	0.88	0.756	0.663	0.21	–	0.191	0.154	0.238	–	–	–	–	–	0.241	–	0.264	0.242	0.231
BEN	1.2	1.03	0.926	0.853	0.752	0.576	0.398	0.491	0.418	0.504	0.0636	0.0524	0.0587	0.0688	0.0536	0.294	0.272	0.273	0.255	0.262
CAL-12T	0.937	0.82	0.617	0.549	0.391	0.277	0.278	0.241	0.188	0.246	1.21	1.1	0.768	0.526	0.716	0.533	0.414	0.379	0.378	0.231
Calu-6	0.931	0.767	0.688	0.572	0.579	–	–	–	–	–	0.538	0.35	0.196	0.194	0.2	–	–	–	–	–
EBC-1	0.837	0.383	0.353	0.257	0.259	–	–	–	–	–	0.27	0.187	0.207	0.143	0.186	–	–	–	–	–
IA-LM	0.426	0.529	0.376	0.185	0.184	–	–	–	–	–	0.388	0.378	0.296	0.251	0.164	–	–	–	–	–
LCLC-103H	1.06	1.04	0.927	0.817	0.756	0.413	0.375	0.364	0.309	0.31	–	–	–	–	–	0.326	0.319	0.275	0.267	0.295
NCI-H358	1.04	0.918	0.834	0.729	0.416	0.117	0.123	0.104	0.104	0.11	–	–	–	–	–	0.372	0.45	0.307	0.323	0.168
NCI-H522	0.917	1.06	1.1	0.898	0.748	0.517	0.564	0.525	0.542	0.566	–	–	–	–	–	0.617	0.698	0.65	0.599	0.563
NCI-H650	0.855	0.922	0.733	0.695	0.368	0.791	0.612	0.498	0.576	0.379	–	–	–	–	–	0.411	0.419	0.419	0.408	0.277
NCI-H661	1.03	1.02	0.934	0.905	0.849	0.355	0.347	0.337	0.34	0.347	–	–	–	–	–	0.29	0.283	0.275	0.261	0.309
NCI-H1299	1.04	0.937	0.958	0.836	0.832	–	–	–	–	–	0.966	0.969	0.977	0.88	0.828	–	–	–	–	–
NCI-H1563	0.992	1.02	0.876	0.935	0.794	–	–	–	–	–	–	–	–	–	–	0.631	0.696	0.655	0.637	0.577
NCI-H1648	1.03	0.761	0.896	0.651	0.58	0.368	0.479	0.285	0.483	0.352	–	–	–	–	–	–	–	–	–	–
NCI-H1703	0.853	0.75	0.287	0.33	0.344	–	–	–	–	–	1.1	0.563	0.27	0.359	0.364	–	–	–	–	–
NCI-H1792	0.952	0.715	0.706	0.25	0.238	–	–	–	–	–	0.717	0.583	0.466	0.364	0.108	–	–	0.125	0.0695	0.114
NCI-H2342	1.06	0.984	0.749	0.807	0.571	0.472	0.476	0.43	0.371	0.383	–	–	–	–	–	0.676	0.649	0.491	0.487	0.399
